How the values were obtained:
CD80 on RAW 264.7 cells = assay: Surface biomarker expression (CD80) in immune cells on micropillar/microwell chip; format: cell-based, mouse; conditions: 3D alginate/Matrigel, glycopolymers at 1250 μg/mL, LPS at 10 μg/mL, 48 hours, vs growth medium control (FIG. 15B)
Procedure: (§1) FIGS. 8, 14, and 15 are discussed in Example 5.
(§2) The micropillars of a 384-pillar micropillar chip were coated with 0.01% PMA-OD. Then 16.6 mM BaCl2/0.0033% PLL were printed onto the micropillars using a […].
(§3) An immune-cell suspension was prepared using 0.75% alginate and 0.5 mg/mL Matrigel and then printed onto the coated micropillars.
(§4) Growth media was then printed into the microwells on a microwell chip using a […].
(§5) The micropillar chip was then sandwiched with the microwell chip for 30 minutes and incubated for 24 hours with fresh growth media.
(§6) Next, various glycopolymers at 1250 μg/mL (polyacrylamide, N-glucosyl polymer, N-mannosyl polymer, N-lactosyl polymer, N-α2,3-sialolactosyl polymer, and N-α2,6-sialolactosyl polymer) and LPS at 10 μg/mL [701] were printed into the microwells.
(§7) The micropillar chip was then sandwiched with the microwell plate containing glycopolymers and LPS [701] for 48 hours. The micropillar chip was then rinsed with TBS [801] for 10 minutes, then incubated with ice-cold methanol and acetone (1:1 ratio) for 10 minutes at room temperature. The micropillar chip was then rinsed with TBS twice for 5 minutes and incubated with blocking buffer (SuperBlock) for 1 hour at room temperature. […]

[1] = system: IL-6 production by RAW 264.7 cells; assay: Cytokine secretion (IL-6) by immune cells on micropillar/microwell chip, 32-plex mouse cytokine array; format: cell-based; conditions: glycopolymers at 1250 μg/mL, LPS at 10 μg/mL, 24 hours, cell supernatant (FIG. 16B)
Procedure: (§8) FIGS. 9 and 16A-D are discussed in this example.
(§9) The micropillars on a micropillar chip were coated with 0.01% PMA-OD. Then 16.6 mM BaCl2/0.0033% PLL was printed on the micropillars using a microarray spotter.
(§10) An immune-cell suspension was prepared using RAW 264.7 cells, 0.75% alginate and 0.5 mg/mL Matrigel and then printed onto the coated micropillars. 60 nL spots of the immune-cell suspension were printed onto a micropillar chip with dried PLL-BaCl2 at a density of 3×10^6 cells/mL. After 2 minutes of alginate gelation and 24-hour incubation with a microwell chip containing 950 nL of cell growth media, the micropillar chip containing immune cells was sandwiched with a new microwell chip containing 950 nL of glycopolymers (polyacrylamide, N-glucosyl polymer, N-galactosyl polymer, N-mannosyl polymer, N-GlcNAc polymer, N-lactosyl polymer, N-α2,3 sialolactosyl polymer, and Nα2,6-sialolactosyl polymer) at 1250 μg/mL and LPS at 10 μg/mL, and incubated at 37° C. and 5% CO2 for 24 hours.
(§11) Separately, immune cells were cultured in 96-well plates in growth media and 10 μg/mL LPS for 24 hours as negative and positive controls for 2D monolayer culture.
(§12) The cell supernatants for all conditions were collected from the microwell chip and the 96-well plate, centrifuged, and analyzed for 32-plex mouse cytokine array measurements. […]

[2] = system: IL-10 production by RAW 264.7 cells; assay: Cytokine secretion (IL-10) by immune cells on micropillar/microwell chip, 32-plex mouse cytokine array; format: cell-based; conditions: glycopolymers at 1250 μg/mL, LPS at 10 μg/mL, 24 hours, cell supernatant (FIG. 16D)
Procedure: as §8, §9, §10, §11, §12

[3] = system: Class II MHC on RAW 264.7 cells; assay: Surface biomarker expression (class II MHC) in immune cells on micropillar/microwell chip; format: cell-based, mouse; conditions: 3D alginate/Matrigel, glycopolymers at 1250 μg/mL, LPS at 10 μg/mL, 48 hours, vs growth medium control (FIG. 15D)
Procedure: as §1, §2, §3, §4, §5, §6, §7

[4] = system: TNF-α production by RAW 264.7 cells; assay: Cytokine secretion (TNF-α) by immune cells on micropillar/microwell chip, 32-plex mouse cytokine array; format: cell-based; conditions: glycopolymers at 1250 μg/mL, LPS at 10 μg/mL, 24 hours, cell supernatant (FIG. 16A)
Procedure: as §8, §9, §10, §11, §12

CD40 on RAW 264.7 cells = assay: Surface biomarker expression (CD40) in immune cells on micropillar/microwell chip; format: cell-based, mouse; conditions: 3D alginate/Matrigel, glycopolymers at 1250 μg/mL, LPS at 10 μg/mL, 48 hours, vs growth medium control (FIG. 15A)
Procedure: as §1, §2, §3, §4, §5, §6, §7

Substance: lipopolysaccharide [LPS]
- expression level of CD80 marker (CD80 on RAW 264.7 cells): enhanced
- IL-6 production [1]: significantly stimulated
- IL-10 production [2]: significantly stimulated
- expression level of class II MHC marker [3]: significantly enhanced
- TNF-α production [4]: significantly stimulated
- expression level of CD40 marker (CD40 on RAW 264.7 cells): significantly enhanced
